Data set [1] is described as follows: Soil stability assay. The format is physicochemical. The following applies: Stein soil:sand 1:1, 0.3 μg/g soil, dark, 20° C. From the text: It is highly desirable that agrochemicals applied to soil in order to deliver a beneficial biological effect can exist in the soil for a prolonged period of time with minimal degradation. However, a biologically active agrochemical compound may undergo chemical transformation in soil, leading to decreased levels of activity and a decrease in a desired biological effect. Simple laboratory degradation studies can be used to evaluate the disappearance due to biotic and abiotic processes of a compound in soil. The time taken for a compound to degrade in soil allows the estimation of their half-life (t1/2), which corresponds to the time in which 50% of the compound under evaluation is degraded in soil. […] Stock standard solutions were prepared by dissolving 1 mg of each test compound (ie, compounds (IA-1a and IA-1b), (IA-17a and IA-17b), P1 and P2) in acetonitrile. The stock standard solutions were stored at 6° C. Working standard solutions were then obtained by a series of dilutions of the stock standard solutions. A treatment solution of 100 μg/mL concentration for each test compound was prepared in methanol. Soil samples used for this soil stability assay were collected at the Syngenta Research Centre location in Stein (Switzerland). The soil was classified as clay loam. Certain physical properties of the soil are described in Table 2. 2 mm sieved Stein soil was mixed with sand at ratio 1:1 prior to starting the laboratory soil degradation experiment. 10 g of the sand-soil mix (air-dried basis) was weighed into 50 ml Corning® polypropylene centrifuge tubes and soil moisture was adjusted at 45% of the field capacity. Chemical application was performed by applying 30 μl of a 100 μg/mL solution of each test compound to 10 g soil vessel corresponding to a final concentration of 0.3 μg test compound per gram of soil. Three replicates were considered for each test compound. Treated tubes were incubated in the dark at 20° C.±0.5. For the estimation of half-life, different sampling times were considered. Based on initial studies, a fast degradation was expected for compounds P1, P2 and IA-17 therefore the following short sampling times of 0, 3, 6, 9 and 24 hours after application were considered. Conversely for compounds IA-1, longer sampling times of 0, 6, 24, 48, 72, 168 and 240 hours after application were used. At each sampling time, samples were removed and stored at −80° C. until analysis. The half-lives were calculated by an exponential regression analysis plotting the percentage of recovered compound in soil against the time. Compounds P1, P2, (IA-1) and (IA-17) were extracted from soil by using 30 mL of Acetonitrile (CHROMASOLV® gradient grade, for HPLC, >99.9%, SIGMA-ALDRICH). The mixture was shaken for 3 hours at room temperature by using a vertical rotary shaker. After centrifugation at 3000 rpm for 5 minutes, an aliquot of the supernatant was collected and analyzed via UPLC-MS (Waters Acquity UPLC-MS PDA-Detection: 254 nm- and SQD-Zspray ESI, APCI, ESCi®-; Waters Acquity UPLC Column HSS T3 2.1×30 mm-1.8 μm; Gradient mobile phase with Solvent A: Water/MeOH (9:1)+ 0.1% Formic Acid and Solvent B: Acetonitrile+ 0.1% Formic Acid; flow of 0.75 ml/min).

Data set [2] is described as follows: Hydrolytic stability assay. The format is physicochemical. The following applies: for half-life: 20 mM mixed acetate, borate and phosphate buffer; for half-life / Hydrolytic Stability (t1/2, hours) pH 7: 40° C.; for % remaining at last assessment time: pH 7, 40° C. The method, then:
The objective of the hydrolytic stability assays is to determine the chemical stability of individual test compounds according to the invention in a controlled and reproducible environment, allowing a comparison of compound in vitro stability under aqueous conditions at pH 7 and 9. Prior to conducting the individual hydrolytic stability assays, stock solutions containing 1000 ppm of each test compound (ie, compounds (IA-1a), (IA-1b), (IA-17a), (IA-17b), P1 and P2) were prepared in methanol. The reagents used in the assays were prepared as follows. A 20 mM buffer solution was prepared from a stock solution of 20 mM mixed acetate, borate and phosphate buffer and the pH adjusted to 7 or 9 as required. Test solutions were prepared in LC vials for each test compound in the following manner: Mobile Phase Control: Mobile phase (1 mL)+compound stock solution (2 to 40 μL). Hydrolytic Stability: Buffer (1 mL)+compound stock solution (2 to 40 μL). The mobile phase and buffer were initially dispensed into separate glass LC vials, placed into an autosampler complete with thermostat set at 40° C. and allowed to equilibrate for 30 minutes prior to starting the individual assays. Reactions were initiated by addition of the compound solution and monitored through a series of repeat injections made directly from the vial into the HPLC system at regular time intervals. Initial and subsequent measurements of peak area attributable to the test compound were used to fit exponential half-lives and calculate first-order rate constants. […] Consequently, the percentage of compound remaining was recorded at the last assessment time.

Data set [3] has as its system NK Falkone corn seeds. Kind of data set: Corn seed germination under cold stress. The format is in vivo. To be noted: 250 μM, cold stress 15° C., control T50 = 110 hours; negative = faster germination. On the procedure: Corn seed germination studies were undertaken on the compounds of the present invention. In particular, the effect of the compounds of Formulae (IA-1a) and (IA-1b) on the germination of NK Falkone corn seeds (Syngenta) under cold stress was evaluated as follows.
NK Falkone corn seeds were sorted by size using 2 sieves, one excluding very big seeds and the other with round holes of 8 to 9 mm diameter. The seeds retained by the latter sieve were used for the germination test.
The corn seeds were placed in 24 well plates (each plate is considered as one experimental unit or replicate). Germination is initiated by the addition of 250 μl of distilled water containing 0.5% DMSO per well as a means for compound solubilization. 8 replicates (ie, 8 plates) were used for each treatment characterization. Plates were sealed using seal foil (Polyolefin Art. Nr. 900320) from HJ-BIOANALYTIK. All plates were placed horizontally on trolleys in a climatic chamber at 15° C. or 23° C. in complete darkness. The experiment was laid out in a completely randomized design in a climatic chamber with 75% relative humidity. Foils were pierced, one hole per well using a syringe after 72 hours for experiments performed at 15° C. and after 24 hours for experiments performed at 23° C.
Germination was followed over time by taking photographs at different time points. Image analysis is done automatically with a macro developed using the Image J software. A dynamic analysis of germination is carried out by fitting a logistic curve to the relationship between % germination and time for each plate (T50 parameter).
T50 is the time needed for half the seed population to be germinated. A negative value of T50 represents a faster germination rate. The mean of T50 parameters is calculated for the 8 replicates and the kinetic parameter is determined for each germination curve. Data in bold indicate germination enhancing statistically significant differences between treated seeds and control (empty vehicle treated) T50 values (P<0.05) as outlined in Table 4.

Setting [4] is: pH 9, 20 mM acetate/borate/phosphate buffer, read-out: Hydrolytic Stability (t1/2, hours) pH 9 (converted).
[5] abbreviates: pH 7, 20 mM acetate/borate/phosphate buffer.
[6] abbreviates: pH 7, 20 mM acetate/borate/phosphate buffer, read-out: Hydrolytic Stability (t1/2, hours) pH 7 (converted).

Here are results for 6 molecules from patent US20180168154A1, “PLANT GROWTH REGULATING COMPOUNDS” (Syngenta Participations AG, priority 2015, published 2018).

Like-named read-outs stand apart in the source and are kept apart here. Marks after values point to notes of the source that are not given here.

Consider `CC1=C(C)[C@H](O/C=C2/C(=O)N[C@@H]3c4ccccc4C[C@H]23)OC1=O` [(IA-1a), (3E,3aR,8bS)-3-[[(2R)-3,4-dimethyl-5-oxo-2H-furan-2-yl]oxymethylene]-1,3a,4,8b-tetrahydroindeno[1,2-b]pyrrol-2-one], for which, in data set [1], the “Soil Stability (t1/2, hours)” value was 87 h. Moreover, the half-life in data set [2] (setting [4]) was 2.4 h. For the same molecule, the “Hydrolytic Stability (t1/2, hours) pH 7” value in data set [2] (setting [5]) was “stable^b”; in data set [2] (pH 7, 20 mM acetate/borate/phosphate buffer, listed as IA-1a), “insufficient loss was observed”. In data set [2] (at 17.9 hours), the “% remaining at last assessment time” value is “^b91.8% remaining at 17.9 hours”. Besides, the “T50 (% vs control)” value in data set [3] was −6.10^c % vs control.

Take `CC1=C(C)[C@@H](O/C=C2/C(=O)N[C@@H]3c4ccccc4C[C@H]23)OC1=O` [(IA-1b), (3E,3aR,8bS)-3-[[(2S)-3,4-dimethyl-5-oxo-2H-furan-2-yl]oxymethylene]-1,3a,4,8b-tetrahydroindeno[1,2-b]pyrrol-2-one]: the “Soil Stability (t1/2, hours)” value in data set [1] turned out to be 53 h. The half-life in data set [2] (setting [4]) was 2.1 h. For the same molecule, the “Hydrolytic Stability (t1/2, hours) pH 7” value was “stable^a” in data set [2] (setting [5]) and “insufficient loss was observed” in data set [2] (pH 7, 20 mM acetate/borate/phosphate buffer, listed as IA-1b). Also, the “% remaining at last assessment time” value in data set [2] (at 21.1 hours) is given as “^a90.9% remaining at 21.1 hours”. In data set [3], the “T50 (% vs control)” value is recorded as −7.60 % vs control.

For the molecule `COC1=C(C)C(=O)O[C@H]1O/C=C1/C(=O)N[C@@H]2c3ccccc3C[C@H]12` [(IA-17a), (3E,3aR,8bS)-3-[[(2R)-3-methoxy-4-methyl-5-oxo-2H-furan-2-yl]oxymethylene]-1,3a,4,8b-tetrahydroindeno[1,2-b]pyrrol-2-one], the “Soil Stability (t1/2, hours)” value in data set [1] stood at 340 h. Also, the half-life in data set [2] (setting [4]) is 16.6 h. Further, the “Hydrolytic Stability (t1/2, hours) pH 7” value is “stable^d” in data set [2] (setting [5]) and “insufficient loss was observed” in data set [2] (pH 7, 20 mM acetate/borate/phosphate buffer, listed as IA-17a). The “% remaining at last assessment time” value in data set [2] (at 17.3 hours) is “^d99.1% remaining at 17.3 hours”. Also, the “T50 (% vs control)” value in data set [3] is −6.50 % vs control.

Turning to `COC1=C(C)C(=O)O[C@@H]1O/C=C1/C(=O)N[C@@H]2c3ccccc3C[C@H]12` [(IA-17b), (3E,3aR,8bS)-3-[[(2S)-3-methoxy-4-methyl-5-oxo-2H-furan-2-yl]oxymethylene]-1,3a,4,8b-tetrahydroindeno[1,2-b]pyrrol-2-one], in data set [1], the “Soil Stability (t1/2, hours)” value is 312 h. In data set [2] (setting [4]), the half-life is 19 h. In addition, the “Hydrolytic Stability (t1/2, hours) pH 7” value in data set [2] (setting [5]) is listed as “stable^c”; in data set [2] (pH 7, 20 mM acetate/borate/phosphate buffer, listed as IA-17b), “insufficient loss was observed”. In data set [2] (at 16.8 hours), the “% remaining at last assessment time” value is reported as “^c99.0% remaining at 16.8 hours”. The “T50 (% vs control)” value in data set [3] is reported as −5.10 % vs control.

With `CC1=C[C@H](O/C=C2/C(=O)N[C@@H]3c4ccccc4C[C@H]23)OC1=O` [Compound P1, reference compound], the “Soil Stability (t1/2, hours)” value in data set [1] came to 4 h. Further, the half-life in data set [2] (setting [6]) is 25.6 h; in data set [2] (setting [4]) it was 0.4 h. In data set [2] (at 21.5 hours), the “% remaining at last assessment time” value is “^f55.4% remaining at 21.5 hours”. Also, the “T50 (% vs control)” value in data set [3] is −4.20 % vs control.

As to `CC1=C[C@@H](O/C=C2/C(=O)N[C@@H]3c4ccccc4C[C@H]23)OC1=O` [Compound P2, reference compound], the “Soil Stability (t1/2, hours)” value in data set [1] stood at 4.2 h. Moreover, the half-life in data set [2] (setting [6]) is 79.5 h; in data set [2] (setting [4]), 0.3 h. Moreover, the “% remaining at last assessment time” value in data set [2] (at 15.8 hours) was “^e86.9% remaining at 15.8 hours”. Moreover, in data set [3], the “T50 (% vs control)” value is −2.30 % vs control.
